The values below come from ChEMBL document CHEMBL1201862, “PubChem BioAssay data set” (2004).

Among the test systems are DMS-114; M19-MEL; XF498; RXF 631; MDA-MB-231; MDA-MB-435; MDA-N; PC-3; T47D.
Test in all cases: NCI tumour cell line growth inhibition, 48 h

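Briefly, cells in 96-well plates were exposed to five compound concentrations for 48 h, and endpoints were estimated by linear interpolation. GI50 is the concentration that inhibits growth by half.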 Active and inactive are the calls of the source. Cut-off read from the data, not from the text of the source: active = GI50 up to about 1.1 µM and inactive = higher.

With `S=P1(N2CCCCC2)Oc2ccc3ccccc3c2-c2c(ccc3ccccc23)O1`, the GI50 with DMS-114 is > 83 µM (inactive); in the experiment on M19-MEL, 71 µM (inactive); in the experiment on XF498, 56.9 µM (inactive).

As for `O=C1CCC2COc3ccc(O)c1c32` (stereo unspecified), the GI50 in the experiment on DMS-114, in the experiment on M19-MEL and with XF498 was > 100 µM (inactive) each time.

As to `O=c1c2ccccc2nc(-c2ccc(Br)cc2)n1NC1OC(CO)C(O)C(O)C1O` (stereo unspecified), the GI50 in the experiment on DMS-114 is 96.6 µM (inactive); with M19-MEL, > 100 µM (inactive); in the experiment with RXF 631, > 100 µM (inactive).

With `COc1c2c(nc3ccccc13)-c1cc3c(c(=O)n1C2)COC(=O)C3(O)CC(=O)N1CCOCC1` (stereo unspecified), the GI50 with DMS-114 is 0.664 µM (active); in the experiment with M19-MEL, 5.58 µM (inactive); in the experiment on MDA-MB-231, 69.7 µM (inactive); in the experiment with MDA-MB-435, 18.7 µM (inactive); in the experiment with MDA-N, 19.5 µM (inactive); in the experiment on PC-3, 21.1 µM (inactive). Also, the GI50 in the experiment on T47D is 3.63 µM (inactive); in the experiment with XF498, 7.96 µM (inactive).

Consider `CCOC(=O)/C(=C/c1ccc[nH]1)P(=O)(OCC)OCC`, for which the GI50 in the experiment with DMS-114, in the experiment on M19-MEL, in the experiment with RXF 631 and in the experiment with XF498 was > 100 µM (inactive) each time.

On to `C(=C/c1nc2ccccc2o1)/c1ccc2c(c1)OCO2`, for which the GI50 with DMS-114 is 16.9 µM (inactive); in the experiment on M19-MEL it was 21.2 µM (inactive); in the experiment with XF498, 20.5 µM (inactive).

As to `O=C1NC2OCC(O)C(O1)C2O` (stereo unspecified), the GI50 with DMS-114, in the experiment with M19-MEL, in the experiment with RXF 631 and in the experiment on XF498 was > 100 µM (inactive) in each case.

Consider `COc1ccc(OC)c(/C=C/NC=O)c1`, for which the GI50 with DMS-114, with M19-MEL, in the experiment with PC-3 and with XF498 was > 100 µM (inactive) throughout.

`COc1cccc(/C=C2\C(=O)N(C(=O)Cc3ccccc3)N=C2C)c1`: the GI50 with DMS-114, with M19-MEL and with XF498 was > 100 µM (inactive) in each case.

On to `Cc1ccccc1N1C(=O)C2C=CC(n3[nH]c(=O)n(Cc4ccccc4)c3=O)CC2C1=O` (stereo unspecified), for which the GI50 in the experiment on DMS-114, in the experiment on M19-MEL and in the experiment with XF498 was > 100 µM (inactive) in each case.

As for `N#CC1(c2nc3ccccc3o2)C(=O)C(=O)N(C2C3CC4CC(C3)CC2C4)C(=O)C1=O` (stereo unspecified), the GI50 in the experiment on DMS-114, in the experiment on M19-MEL and with XF498 was > 100 µM (inactive) throughout.

As for `CCCCCCCCCCCC(=O)OCC(C[As](=O)(O)O)OC(=O)CCCCCCCCCCC` (stereo unspecified), the GI50 in the experiment with DMS-114 is 1.65 µM (inactive); in the experiment with M19-MEL it was 4.25 µM (inactive); in the experiment on MDA-MB-231 it was 4.54 µM (inactive); with MDA-MB-435, 3.46 µM (inactive); with MDA-N, 4.48 µM (inactive); with PC-3, 3.18 µM (inactive). In addition, the GI50 in the experiment with T47D is 14.7 µM (inactive); in the experiment on XF498, 2.9 µM (inactive).

For the compound `CCOc1ccc(NC(=O)C(=O)CC(=O)c2c(C)[n+]([O-])c3ccccc3[n+]2[O-])cc1`, the GI50 is > 100 µM (inactive) in the experiment on DMS-114, > 100 µM (inactive) with M19-MEL, > 100 µM (inactive) in the experiment on RXF 631 and 59.8 µM (inactive) in the experiment with XF498.

As to `COc1cc(C2C(C(=O)NCc3ccccc3)=C(C)NC(C)=C2C(=O)NCc2ccccc2)ccc1O`, the GI50 is 39.4 µM (inactive) in the experiment on DMS-114, 39.4 µM (inactive) in the experiment with M19-MEL, 27.3 µM (inactive) in the experiment on RXF 631 and 61.5 µM (inactive) with XF498.

Consider `O=C1NC2(CCCCC2)C2CCCCC(O)C12` (stereo unspecified), for which the GI50 in the experiment with DMS-114, in the experiment on M19-MEL and with RXF 631 was > 100 µM (inactive) each time.

`COC(=O)c1cc2c(s1)C(=O)c1ccccc1-2`: the GI50 with DMS-114, with M19-MEL and with RXF 631 was > 100 µM (inactive) throughout.

`Cc1ccc(N2Cc3c(ccc4ccccc34)OP2(=O)Oc2ccc(Cl)c(C)c2)cc1` (stereo unspecified): the GI50 is > 67.1 µM (inactive) with DMS-114, > 100 µM (inactive) in the experiment on M19-MEL and > 100 µM (inactive) in the experiment on XF498.
